The target of data set [1] is T1, Lp-PLA2 (human recombinant enzyme as the source of enzyme) (Homo sapiens, UniProt Q13093).
T1 sequence (Q13093 22-441): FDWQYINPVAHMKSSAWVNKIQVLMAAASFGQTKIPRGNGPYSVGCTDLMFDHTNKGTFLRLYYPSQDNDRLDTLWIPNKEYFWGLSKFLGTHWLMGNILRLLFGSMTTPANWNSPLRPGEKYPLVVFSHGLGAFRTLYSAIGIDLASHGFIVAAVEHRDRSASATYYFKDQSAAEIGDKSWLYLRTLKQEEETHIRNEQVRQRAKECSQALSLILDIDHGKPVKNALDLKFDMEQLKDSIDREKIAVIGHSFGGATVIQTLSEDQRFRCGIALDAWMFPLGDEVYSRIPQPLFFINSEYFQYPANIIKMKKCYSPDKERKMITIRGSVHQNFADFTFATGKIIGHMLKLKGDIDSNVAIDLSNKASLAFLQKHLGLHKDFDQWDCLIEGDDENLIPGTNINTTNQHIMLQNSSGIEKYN
Nature of the data set: In vitro inhibitory activity on Lp-PLA2, human recombinant enzyme (2-thio-PAF/DTNB). Type of data set: biochemical. Particulars: read-out: inhibitory ratio, % on Lp-PLA2 (human recombinant enzyme as the source of enzyme). The protocol: (§1) 0.1M Tris-HCl, 1 mM EGTA, PH 7.2
(§2) Anhydrous ethanol was used as solvent to make a 25 mg/ml mother liquor. The solution was aliquoted, stored at −80° C. and diluted 900 times before use (about 50 μM of concentration)
(§3) 3) DTNB (5,5′-dithio-bis-(2-nitrobenzoic acid), Sigma, Lot D8130)
(§4) The solution was prepared just before use.
(§5) 4) Compound was dissolved in DMSO to a suitable concentration.
(§6) Lp-PLA2 activity was determined by using 2-thio-PAF as substrate. The thiol group produced upon the hydrolysis of 2-thio-PAF can react with DTNB to generate a yellow substance. The optical density at 414 nm can be detected to reflect Lp-PLA2 activity.
1.2 Determination of the Inhibitory Activity of the Compounds on Lp-PLA2 (Human Recombinant Enzyme as the Source of Enzyme) (In Vitro)
1) The corresponding reagents were added according to Table 3 and mixed uniformly by shaking.
(§7) 2) 10 μL of DTNB was added to each well.
(§8) 3) 150 μL of 2-thio-PAF was added to each well and shaken for 15 s on a microplate reader to mix the liquid in the well uniformly.

Data set [2] in a line: In vitro assay of S9 metabolic stability, human S9. It counts as in vitro ADME. Particulars: for half-life at 0.1 μM: human, S9 fraction, pH 7.4. The protocol:
(§9) 3.1.1 The Preparation of Tris/HCl(0.1 M, pH 7.4) Buffer
(§10) 12.12 g of TRIS (tris-hydroxymethyl aminomethane) was weighed, dissolved in 800 mL of water, and adjusted to pH 7.4 with HCl (2 M), and then the volume was adjusted to 1000 mL with water.
(§11) 3.1.2 The preparation of MgCl2
(§12) MgCl2 (100 mM) solution was prepared with 0.1 M Tris/HCl buffer, aliquoted and stored at −20° C. The incubation concentration of MgCl2 was 5.0 mM.
(§13) 3.1.3 The Preparation of NADPH
(§14) NADPH (10 mM) solution was prepared with 0.1 M Tris/HCl buffer, aliquoted and stored at −20° C. The incubation concentration of NADPH was 1.0 mM.
(§15) 3.1.4 The Preparation of S9
(§16) Human S9 (purchased from Reid Liver Disease Research (Shanghai) Co., Ltd.) was diluted 10 times with 0.1 M Tris/HCl and rat S9 (purchased from Reid Liver Disease Research (Shanghai) Co., Ltd.) was diluted 5 times with 0.1 M Tris/HCl, so that the incubation concentrations of human and rat S9 were equivalent to the incubation concentrations of the liver microsomes in the corresponding species (both incubation concentrations of liver microsomes in human and rats are 0.33 mg/mL).
(§17) 3.1.5 The Preparation of the Compounds to be Tested
The compound was dissolved in DMSO to obtain a stock solution at a concentration of 10 mM. The stock solution was diluted to 1 mM with DMSO and then diluted with 0.1% BSA-water to obtain a working solution at a concentration of 2 μM. In the incubation system, the working solution of 2 μM was diluted 20 times to a final concentration of 0.1 μM. The concentration of DMSO in the incubation system was ≤0.01%.
3.1.6 The Preparation of the Positive Control Compound
2 mM VIVID stock solution (purchased from Shanghai Beili Biotechnology Co., Ltd.) was diluted 50 times with the 2 μM working solution for the compounds to be tested. In the incubation system, the mixed working solution of VIVID and the compounds to be tested were diluted 20 times
S9 was incubated in a 96-well plate and each incubation system was 450 μL. […]

A short description of data set [3]: In vitro assay of S9 metabolic stability, rat S9. Type of data set: in vitro ADME. Particulars: S9 fraction, pH 7.4; rat S9, NADPH addition, 0.1 μM compound, 37° C. The protocol:
as §9, §10, §11, §12, §13, §14, §15, §16, §17
The compound was dissolved in DMSO to obtain a stock solution at a concentration of 10 mM. The stock solution was diluted to 1 mM with DMSO and then diluted with 0.1% BSA-water to obtain a working solution at a concentration of 2 μM. […]

Data set [4] relates to Lp-PLA2 (rat serum as the source of enzyme). Kind of data set: In vitro inhibitory activity on Lp-PLA2, rat serum as the source of enzyme (2-thio-PAF/DTNB). It counts as biochemical. The protocol: as §1, §2, §3, §4, §5, §6
1.3 Determination of the Inhibitory Activity of the Compounds on Lp-PLA2 (Rat Serum as the Source of Enzyme (In Vitro)
1) The corresponding reagents were added according to Table 5 and mixed uniformly by shaking.
as §7, §8

The target of data set [5] is T2, Lp-PLA2 (rabbit serum as the source of enzyme) (Oryctolagus cuniculus, UniProt G1SE06).
T2 construct: Rabbit Serum as the Source of Enzyme; from tissue; host or cells: rabbit serum
T2 sequence (G1SE06 22-423): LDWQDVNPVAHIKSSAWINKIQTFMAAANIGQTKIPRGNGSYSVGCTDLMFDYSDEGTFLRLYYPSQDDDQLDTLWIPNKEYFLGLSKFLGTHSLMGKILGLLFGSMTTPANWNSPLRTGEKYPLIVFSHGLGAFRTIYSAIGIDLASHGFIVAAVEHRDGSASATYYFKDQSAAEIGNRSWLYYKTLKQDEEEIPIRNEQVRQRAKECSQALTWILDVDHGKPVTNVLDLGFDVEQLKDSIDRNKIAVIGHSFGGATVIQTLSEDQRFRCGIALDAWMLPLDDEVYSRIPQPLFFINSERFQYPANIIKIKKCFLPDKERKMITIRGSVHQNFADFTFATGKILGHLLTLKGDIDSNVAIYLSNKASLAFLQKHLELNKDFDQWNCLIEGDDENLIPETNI
Nature of the data set: In vitro inhibitory activity on Lp-PLA2, rabbit serum as the source of enzyme (2-thio-PAF/DTNB). It counts as biochemical. Particulars: read-out: Inhibitory ratio, % on Lp-PLA2 (rabbit serum as the source of enzyme). The protocol: as §1, §2, §3, §4, §5, §6
1.1 Determination of the Inhibitory Activity of the Compounds on Lp-PLA2 (Rabbit Serum as the Source of Enzyme) (In Vitro)
1) The corresponding reagents were added according to Table 1 and mixed uniformly by shaking.
as §7, §8

Data set [6] deals with Lp-PLA2 in serum of SD rats. Nature of the data set: In vivo inhibition assay of Lp-PLA2 activity in SD rats, single administration. Further details: species or system rat. The note with it: 50 mg/kg oral, serum 1-24 h. The protocol: Each group had 5 SD rats and 50 mg/kg test agents was administrated orally to the rats. […] Blood was collected from the orbits of the rats at 0 h before administration and at 1 h, 3 h, 5 h, 7 h and 24 h after administration and placed at room temperature for 30 minutes before centrifugation. Serum was collected and the Lp-PLA2 activity in serum was measured.

The mark [7] stands for this setting: 10 nM compound, — = no inhibitory activity.

Molecules are shown by their SMILES.

One may read the half-life as how long it takes for the measured level to halve. Turning to `Cn1cc(-c2cc(OCc3cc(F)c(Oc4ccc(Cl)c(C(F)(F)F)c4)c(F)c3)nc(=O)n2C)cn1` [Example 21, 4-((4-(4-chloro-3-(trifluoromethyl)phenoxy)-3,5-difluorobenzyl)oxy)-1-methyl-6-(1-methyl-1H-pyrazolyl-4)pyrimidin-2(1H)-one], the results for the inhibition at 0.01 µM in data set [1] (10 nM compound) and in data set [5] (setting [7]) were 82.8% and 33.2%, respectively. Further, the inhibition at 0.1 µM in data set [1] (100 nM compound) came to 90.1%; in data set [5] (100 nM compound), 65.4%. For the same compound, the half-life at 0.1 μM is above 1 h in data set [2] and 195 h in data set [3]. The “metabolism stability (in words)” value in data set [2] (statement covers human and rat S9) is “superior metabolism stability”. The “inhibitory ratio, % on Lp-PLA2 (rat serum as the source of enzyme)” value worked out at 27.65% in data set [4] (setting [7]) and 82.48% in data set [4] (100 nM compound).
Regarding `COc1cc(OCc2cc(F)c(Oc3ccc(Cl)c(C(F)(F)F)c3)c(F)c2)nc(=O)n1C` [Example 65, 4-((4-(4-chloro-3-(trifluoromethyl)phenoxy)-3,5-difluorobenzyl)oxy)-6-methoxy-1-methylpyrimidin-2(1H)-one], the half-life at 0.1 μM was 7.08 h in data set [2] and 2.68 h in data set [3].
For `COc1cc(OCc2ccc(Oc3ccc(Cl)c(C(F)(F)F)c3)c(F)c2)nc(=O)n1C` [Example 66, 4-((4-(4-chloro-3-(trifluoromethyl)phenoxy)-3-fluorobenzyl)oxy)-6-methoxy-1-methylpyrimidin-2(1H)-one], the “activity of Lp-PLA2 in serum of the SD rats after a single administration” value in data set [6] is “comparable to darapladib”.

The values above are taken from patent publication US10280146B2, “Pyrimidone compounds used as Lp-PLA2 inhibitors and pharmaceutical compositions thereof” (Shanghai Institute of Materia Medica, Chinese Academy of …, priority 2014, dated 2019).
